{"source": "patent US9579383B2", "about": "“Formulations for enhanced bioavailability of orally administered polar agents” (ALA WAI PHARMA, INC., priority 2007, dated 2017)", "key": {"Caco-2 cell monolayers [1]": {"system": "Caco-2 cell monolayers", "assay": "Caco-2 cell permeability assay of peramivir with permeability enhancers", "details": "for Fold-Enhancement Over Control / ng peramivir transported/min: peramivir 15 μg/mL"}, "Caco-2 cell monolayers [2]": {"system": "Caco-2 cell monolayers"}, "Caco-2 cells": {"system": "Caco-2 cells", "assay": "cytotoxicity of PPS at the concentrations used", "format": "cell-based", "details": "in the concentrations used (0.001% to 0.01%)"}, "viral neuraminidase": {"system": "viral neuraminidase", "details": "depending on the influenza strain; based on concentrations required for 50% inhibition of neuraminidase activity in vitro; cited from earlier work"}, "influenza A and B": {"system": "influenza A and B", "details": "oral formulation, phase III clinical trial; cited from earlier work"}, "[3]": {"system": "avian influenza virus (H5N1)", "details": "cited from earlier work"}, "[4]": {"details": "human, in vivo; cited from earlier work"}, "[5]": {"details": "enhancer concentration 0.05% in HBSS"}, "[6]": {"details": "enhancer concentration 0.10% in HBSS"}, "[7]": {"details": "enhancer concentration 0.20% in HBSS"}}, "note": "Where two headings read alike, the source gives them in different places."}
{"compound": "phosphatidylcholine", "values": [{"measurement": "peramivir permeability enhancement in Caco-2 cell assays (in words)", "setting": "Caco-2 cell monolayers [1]", "result": "some potential for peramivir permeability enhancement"}, {"measurement": "Fold-Enhancement Over Control", "setting": "Caco-2 cell monolayers [1]; [5]", "result": 2.11, "unit": "fold"}, {"measurement": "ng peramivir transported/min", "setting": "Caco-2 cell monolayers [1]; [5]", "result": 0.4, "unit": "ng/min"}, {"measurement": "Fold-Enhancement Over Control", "setting": "Caco-2 cell monolayers [1]; [6]", "result": 2.11, "unit": "fold"}, {"measurement": "ng peramivir transported/min", "setting": "Caco-2 cell monolayers [1]; [6]", "result": 0.4, "unit": "ng/min"}, {"measurement": "Fold-Enhancement Over Control", "setting": "Caco-2 cell monolayers [1]; [7]", "result": 7, "unit": "fold"}, {"measurement": "ng peramivir transported/min", "setting": "Caco-2 cell monolayers [1]; [7]", "result": 1.33, "unit": "ng/min"}]}
{"compound": "OCC(O)CO", "note": "[Glycerol, glycerol]", "values": [{"measurement": "peramivir permeability (in words)", "setting": "Caco-2 cell monolayers [2]", "result": "substantial increase in peramivir permeability"}, {"measurement": "peramivir permeability enhancement", "setting": "Caco-2 cell monolayers [2]; human", "result": "Less than 150%"}]}
{"compound": "CN1CCNCC1", "note": "[N-Methylpiperazine, N-methylpiperazine]", "values": [{"measurement": "peramivir permeability enhancement in Caco-2 cell assays (in words)", "setting": "Caco-2 cell monolayers [1]", "result": "negative"}]}
{"compound": "CCCCCCCCCCCCCCCC[N+](C)(C)CCCS(=O)(=O)[O-]", "note": "[PPS, 3-(N,N-dimethylpalmitylammonio)propane sulfonate]", "values": [{"measurement": "cytotoxicity", "setting": "Caco-2 cells", "result": "not cytotoxic"}, {"measurement": "peramivir permeability (in words)", "setting": "Caco-2 cell monolayers [1]; PPS varying from 0.001% to 0.01% final concentration", "result": "substantially increased peramivir permeability"}]}
{"compound": "CCC(CC)[C@H](NC(C)=O)[C@@H]1[C@H](O)[C@@H](C(=O)O)C[C@H]1NC(=N)N", "note": "[peramivir, (1S,2S,3S,4R)-3-[(1S)-1-Acetamido-2-ethyl-butyl]-4-(diaminomethylideneamino)-2-hydroxy-cyclopentane-1-carboxylic acid]", "values": [{"measurement": "potency as neuraminidase inhibitor relative to oseltamivir (Tamiflu®) and zanimivir", "setting": "viral neuraminidase", "result": "2 to 10", "unit": "times"}, {"measurement": "antiviral activity against influenza A and B", "setting": "influenza A and B", "result": "did not reach statistical significance"}, {"measurement": "sensitivity to peramivir", "setting": "[3]", "result": "sensitive"}, {"measurement": "oral bioavailability", "setting": "[4]", "result": "very poor oral bioavailability"}]}
{"compound": "O=C([O-])c1ccccc1O.[Na+]", "note": "[sodium salicylate]", "values": [{"measurement": "peramivir permeability enhancement in Caco-2 cell assays (in words)", "setting": "Caco-2 cell monolayers [1]", "result": "negative"}]}
{"compound": "CCCCCCCC/C=C\\CCCCCCCC(=O)OCCOCC(OCCO)C1OCC(OCCO)C1OCCO", "note": "(stereo not drawn) [Tween-80]", "values": [{"measurement": "peramivir permeability enhancement in Caco-2 cell assays (in words)", "setting": "Caco-2 cell monolayers [1]", "result": "negative"}]}
